Consider six molecules from ChEMBL document CHEMBL5465560, “Selectivity Literature for EUbOPEN Chemogenomic Library” (2024).

In general, IC50 refers to the concentration needed to halve the response being measured.

Assay [1] addresses Casein kinase I isoform alpha (Homo sapiens, UniProt P48729). In words: Selectivity interaction (KinomeScan (DiscoverX)) EUB0001049a CSNK1A1. Particulars: at 1 µM.
The target in assay [2] is T1, Interleukin-1 receptor-associated kinase 4 (Homo sapiens) (UniProt Q9NWZ3).
T1 sequence (whole entry): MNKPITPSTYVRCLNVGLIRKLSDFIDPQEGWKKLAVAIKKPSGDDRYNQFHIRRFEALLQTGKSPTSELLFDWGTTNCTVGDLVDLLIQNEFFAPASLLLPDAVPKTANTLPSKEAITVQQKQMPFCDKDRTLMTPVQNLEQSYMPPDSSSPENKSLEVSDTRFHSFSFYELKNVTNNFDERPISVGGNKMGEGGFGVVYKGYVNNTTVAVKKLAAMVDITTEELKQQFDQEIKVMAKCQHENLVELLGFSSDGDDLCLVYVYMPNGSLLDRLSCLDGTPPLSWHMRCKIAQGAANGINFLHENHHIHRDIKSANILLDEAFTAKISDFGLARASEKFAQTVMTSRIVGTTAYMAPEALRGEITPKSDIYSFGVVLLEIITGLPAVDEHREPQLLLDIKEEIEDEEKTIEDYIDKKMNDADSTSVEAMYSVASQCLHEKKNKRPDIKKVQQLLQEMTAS
In words: Selectivity interaction (KinomeScan (DiscoverX)) EUB0001049a IRAK4. The conditions noted are these: at 1 µM.

Assay [3] has as its target Cyclin-dependent kinase 7 (Homo sapiens, UniProt P50613). Briefly: Selectivity interaction (KinomeScan (DiscoverX)) EUB0000655a CDK7. The conditions noted are these: at 10 µM.
Assay [4] addresses T2, Muscle, skeletal receptor tyrosine-protein kinase (Homo sapiens) (UniProt O15146).
T2 sequence (whole entry): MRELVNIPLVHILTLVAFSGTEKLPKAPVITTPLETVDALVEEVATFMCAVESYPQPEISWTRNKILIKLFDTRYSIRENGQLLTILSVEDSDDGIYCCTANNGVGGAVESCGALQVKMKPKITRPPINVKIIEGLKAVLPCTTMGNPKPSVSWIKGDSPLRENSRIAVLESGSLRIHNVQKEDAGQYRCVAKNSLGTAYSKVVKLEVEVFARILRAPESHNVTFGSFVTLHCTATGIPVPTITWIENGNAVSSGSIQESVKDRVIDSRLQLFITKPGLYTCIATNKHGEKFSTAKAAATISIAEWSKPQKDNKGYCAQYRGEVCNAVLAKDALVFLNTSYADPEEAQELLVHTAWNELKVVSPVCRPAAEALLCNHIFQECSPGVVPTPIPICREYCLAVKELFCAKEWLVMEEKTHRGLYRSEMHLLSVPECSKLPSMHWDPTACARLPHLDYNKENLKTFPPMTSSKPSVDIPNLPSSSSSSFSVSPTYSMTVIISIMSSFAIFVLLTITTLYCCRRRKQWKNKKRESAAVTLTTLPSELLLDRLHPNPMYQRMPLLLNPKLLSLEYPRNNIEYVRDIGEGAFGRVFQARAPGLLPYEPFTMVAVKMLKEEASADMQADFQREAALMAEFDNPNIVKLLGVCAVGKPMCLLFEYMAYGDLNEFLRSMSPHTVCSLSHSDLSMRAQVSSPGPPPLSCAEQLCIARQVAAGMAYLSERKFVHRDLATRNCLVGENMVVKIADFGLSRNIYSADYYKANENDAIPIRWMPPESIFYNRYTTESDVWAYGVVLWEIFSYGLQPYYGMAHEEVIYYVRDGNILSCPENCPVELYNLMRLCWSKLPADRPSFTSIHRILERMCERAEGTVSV
Briefly: Selectivity interaction (KinomeScan (DiscoverX)) EUB0000695a MUSK. Particulars: at 100 nM.

For assay [5], the target named is Dual specificity mitogen-activated protein kinase kinase 1 (Homo sapiens, UniProt Q02750). Briefly: (§1) Selectivity interaction (LanthaScreen Eu Kinase Binding Assay) EUB0001632a MAP2K1. Particulars: at 10 µM. A general note: Time-resolved FRET reads energy transfer from a long-lived donor to a nearby acceptor.
In assay [6] the test system is Dual specificity mitogen-activated protein kinase kinase 1 (Homo sapiens), Q02750 [S218D,S222D]. The assay is described as §1. The conditions noted are these: at 10 µM.
In assay [7] the target is Mitogen-activated protein kinase 7 (Homo sapiens) (UniProt Q13164). In words: Selectivity interaction (Rxn Biology Kinase assay) EUB0001632a MAPK7. Particulars: at 10 µM.
The target in assay [8] is Cyclin-dependent kinase 9 (Homo sapiens, UniProt P50750). Briefly: Selectivity interaction (LanthaScreen Eu Kinase Binding Assay) EUB0001632a CDK9. Particulars: at 10 µM.
Assay [9] concerns Epidermal growth factor receptor (Homo sapiens), P00533 [UNDEFINED MUTATION]. Briefly: Selectivity interaction (KinomeScan (DiscoverX)) EUB0000229b EGFR. The conditions noted are these: at 1 µM.
The target in assay [10] is T3, Mitogen-activated protein kinase kinase kinase kinase 2 (Homo sapiens) (UniProt Q12851).
T3 sequence (whole entry): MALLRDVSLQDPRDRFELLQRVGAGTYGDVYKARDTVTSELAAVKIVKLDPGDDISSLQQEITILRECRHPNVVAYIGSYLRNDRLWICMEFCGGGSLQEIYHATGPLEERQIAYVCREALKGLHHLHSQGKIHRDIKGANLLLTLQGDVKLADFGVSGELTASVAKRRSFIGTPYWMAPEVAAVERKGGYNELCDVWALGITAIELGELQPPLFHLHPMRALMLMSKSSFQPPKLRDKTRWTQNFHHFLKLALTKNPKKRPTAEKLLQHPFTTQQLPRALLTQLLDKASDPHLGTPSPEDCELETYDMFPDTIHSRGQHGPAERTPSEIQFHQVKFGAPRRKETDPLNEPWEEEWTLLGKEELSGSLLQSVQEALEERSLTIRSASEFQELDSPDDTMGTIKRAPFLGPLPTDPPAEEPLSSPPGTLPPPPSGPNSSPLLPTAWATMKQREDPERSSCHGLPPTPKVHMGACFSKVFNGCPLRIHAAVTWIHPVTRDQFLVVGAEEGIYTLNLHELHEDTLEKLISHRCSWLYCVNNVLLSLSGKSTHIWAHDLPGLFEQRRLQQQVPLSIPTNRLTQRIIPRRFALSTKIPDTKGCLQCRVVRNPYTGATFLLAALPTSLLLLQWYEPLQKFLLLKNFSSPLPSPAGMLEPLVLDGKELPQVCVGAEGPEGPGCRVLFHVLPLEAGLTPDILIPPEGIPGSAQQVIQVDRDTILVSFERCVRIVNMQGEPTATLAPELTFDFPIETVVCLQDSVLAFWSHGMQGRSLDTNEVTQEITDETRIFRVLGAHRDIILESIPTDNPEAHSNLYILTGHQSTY
Briefly: Selectivity interaction (KinomeScan (DiscoverX)) EUB0000229b MAP4K2. The conditions noted are these: at 10 µM.

For assay [11], the target named is Nuclear receptor subfamily 1 group I member 2 (Homo sapiens, UniProt O75469). In words: Selectivity interaction (Pregnane X Receptor (PXR, SXR) binding, human recombinant ) EUB0000877a NR1I2.
Chain of Nuclear receptor subfamily 1 group I member 2 (O75469 whole entry): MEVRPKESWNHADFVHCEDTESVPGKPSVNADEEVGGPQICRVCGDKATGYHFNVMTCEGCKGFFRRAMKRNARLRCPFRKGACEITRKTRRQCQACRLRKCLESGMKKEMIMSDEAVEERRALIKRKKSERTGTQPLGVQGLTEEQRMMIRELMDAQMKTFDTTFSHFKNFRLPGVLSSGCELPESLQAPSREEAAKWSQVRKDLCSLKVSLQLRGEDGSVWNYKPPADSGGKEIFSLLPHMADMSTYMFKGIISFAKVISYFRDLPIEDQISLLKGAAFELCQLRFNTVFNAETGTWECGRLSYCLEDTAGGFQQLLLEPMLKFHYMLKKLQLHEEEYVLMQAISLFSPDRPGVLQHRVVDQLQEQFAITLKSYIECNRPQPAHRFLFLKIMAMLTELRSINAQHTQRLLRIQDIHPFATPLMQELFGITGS

Chain of Dual specificity mitogen-activated protein kinase kinase 1 (Q02750 whole entry): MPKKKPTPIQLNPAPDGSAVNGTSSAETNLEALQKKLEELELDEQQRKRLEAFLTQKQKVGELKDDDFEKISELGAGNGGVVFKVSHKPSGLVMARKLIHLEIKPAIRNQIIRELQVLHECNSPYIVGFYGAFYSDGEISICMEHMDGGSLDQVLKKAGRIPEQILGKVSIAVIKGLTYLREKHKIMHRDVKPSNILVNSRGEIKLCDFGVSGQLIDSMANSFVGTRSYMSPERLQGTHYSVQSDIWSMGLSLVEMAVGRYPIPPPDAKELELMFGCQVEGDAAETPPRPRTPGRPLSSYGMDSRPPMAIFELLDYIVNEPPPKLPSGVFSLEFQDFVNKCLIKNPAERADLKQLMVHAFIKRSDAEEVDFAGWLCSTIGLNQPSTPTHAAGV
Chain of Mitogen-activated protein kinase 7 (Homo sapiens) (Q13164 2-816 limits assumed): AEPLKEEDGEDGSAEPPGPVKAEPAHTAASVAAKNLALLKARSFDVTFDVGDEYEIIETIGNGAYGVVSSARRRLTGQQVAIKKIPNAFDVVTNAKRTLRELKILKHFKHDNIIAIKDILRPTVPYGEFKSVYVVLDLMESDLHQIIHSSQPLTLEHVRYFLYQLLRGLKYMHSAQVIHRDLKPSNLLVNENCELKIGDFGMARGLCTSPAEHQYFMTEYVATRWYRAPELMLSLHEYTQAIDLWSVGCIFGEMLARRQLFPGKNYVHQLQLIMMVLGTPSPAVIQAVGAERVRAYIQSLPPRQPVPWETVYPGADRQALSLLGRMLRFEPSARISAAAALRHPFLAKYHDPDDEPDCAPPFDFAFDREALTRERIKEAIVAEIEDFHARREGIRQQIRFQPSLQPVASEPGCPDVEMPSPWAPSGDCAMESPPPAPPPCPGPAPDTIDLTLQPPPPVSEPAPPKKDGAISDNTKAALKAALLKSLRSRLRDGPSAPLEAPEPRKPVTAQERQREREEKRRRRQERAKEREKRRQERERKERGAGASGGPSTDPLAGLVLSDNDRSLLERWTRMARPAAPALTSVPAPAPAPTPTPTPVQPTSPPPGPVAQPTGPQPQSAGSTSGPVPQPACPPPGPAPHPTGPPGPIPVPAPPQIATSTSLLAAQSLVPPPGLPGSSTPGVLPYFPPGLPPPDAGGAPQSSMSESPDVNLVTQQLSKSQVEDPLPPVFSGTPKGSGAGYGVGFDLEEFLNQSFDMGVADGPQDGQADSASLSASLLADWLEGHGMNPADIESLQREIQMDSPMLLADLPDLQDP
Chain of Cyclin-dependent kinase 7 (P50613 whole entry): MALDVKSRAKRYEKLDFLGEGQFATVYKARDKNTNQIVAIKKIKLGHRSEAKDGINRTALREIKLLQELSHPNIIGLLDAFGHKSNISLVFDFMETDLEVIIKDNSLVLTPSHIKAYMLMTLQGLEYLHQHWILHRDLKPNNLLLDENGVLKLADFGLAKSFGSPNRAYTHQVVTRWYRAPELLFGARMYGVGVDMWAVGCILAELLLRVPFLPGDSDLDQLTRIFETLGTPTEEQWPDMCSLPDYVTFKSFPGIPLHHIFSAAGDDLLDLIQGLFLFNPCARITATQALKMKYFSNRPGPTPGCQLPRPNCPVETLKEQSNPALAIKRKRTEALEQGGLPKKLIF
Chain of Cyclin-dependent kinase 9 (P50750 whole entry): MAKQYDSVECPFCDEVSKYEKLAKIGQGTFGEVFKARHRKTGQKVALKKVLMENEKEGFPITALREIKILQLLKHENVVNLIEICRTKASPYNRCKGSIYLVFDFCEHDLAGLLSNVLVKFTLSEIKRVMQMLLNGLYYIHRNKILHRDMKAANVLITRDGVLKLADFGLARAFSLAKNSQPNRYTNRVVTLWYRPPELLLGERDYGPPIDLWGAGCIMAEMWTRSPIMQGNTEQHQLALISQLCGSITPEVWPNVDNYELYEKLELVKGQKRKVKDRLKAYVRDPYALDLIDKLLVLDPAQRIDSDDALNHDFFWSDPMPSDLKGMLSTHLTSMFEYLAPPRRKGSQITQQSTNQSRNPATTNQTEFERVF
Chain of Epidermal growth factor receptor (Homo sapiens), P00533 [UNDEFINED MUTATION] (P00533 whole entry, looked up, change not shown): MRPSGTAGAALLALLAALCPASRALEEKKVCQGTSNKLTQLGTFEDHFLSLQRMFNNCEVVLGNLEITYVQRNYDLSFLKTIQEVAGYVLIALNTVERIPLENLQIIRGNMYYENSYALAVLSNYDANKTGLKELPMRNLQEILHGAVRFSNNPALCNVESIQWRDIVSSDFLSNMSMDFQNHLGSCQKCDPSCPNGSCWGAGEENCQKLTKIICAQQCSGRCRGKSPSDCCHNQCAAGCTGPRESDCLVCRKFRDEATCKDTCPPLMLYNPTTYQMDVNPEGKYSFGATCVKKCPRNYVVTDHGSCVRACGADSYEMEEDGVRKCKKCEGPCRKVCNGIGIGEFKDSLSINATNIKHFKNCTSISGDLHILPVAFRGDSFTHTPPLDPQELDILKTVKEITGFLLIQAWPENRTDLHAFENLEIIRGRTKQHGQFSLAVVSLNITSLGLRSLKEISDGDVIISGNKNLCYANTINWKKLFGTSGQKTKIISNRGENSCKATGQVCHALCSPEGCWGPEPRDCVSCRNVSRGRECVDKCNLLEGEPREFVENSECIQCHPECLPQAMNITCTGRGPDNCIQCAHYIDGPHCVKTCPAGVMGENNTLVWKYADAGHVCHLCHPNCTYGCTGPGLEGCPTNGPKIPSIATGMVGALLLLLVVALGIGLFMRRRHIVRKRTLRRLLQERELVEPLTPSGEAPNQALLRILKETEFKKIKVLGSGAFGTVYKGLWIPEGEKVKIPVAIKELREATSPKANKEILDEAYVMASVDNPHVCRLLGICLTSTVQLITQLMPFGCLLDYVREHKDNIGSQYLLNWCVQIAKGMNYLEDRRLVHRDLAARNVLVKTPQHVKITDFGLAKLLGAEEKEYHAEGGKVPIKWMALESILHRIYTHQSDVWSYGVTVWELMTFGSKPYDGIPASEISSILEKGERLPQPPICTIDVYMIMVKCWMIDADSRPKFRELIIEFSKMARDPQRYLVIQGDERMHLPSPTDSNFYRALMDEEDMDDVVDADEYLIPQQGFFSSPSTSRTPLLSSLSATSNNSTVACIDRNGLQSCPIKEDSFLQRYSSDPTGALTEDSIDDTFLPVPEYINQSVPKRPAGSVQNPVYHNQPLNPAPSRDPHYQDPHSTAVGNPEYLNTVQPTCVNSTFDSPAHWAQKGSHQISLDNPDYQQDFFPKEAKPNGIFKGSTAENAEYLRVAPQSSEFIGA
Chain of Casein kinase I isoform alpha (P48729 2-337 limits assumed): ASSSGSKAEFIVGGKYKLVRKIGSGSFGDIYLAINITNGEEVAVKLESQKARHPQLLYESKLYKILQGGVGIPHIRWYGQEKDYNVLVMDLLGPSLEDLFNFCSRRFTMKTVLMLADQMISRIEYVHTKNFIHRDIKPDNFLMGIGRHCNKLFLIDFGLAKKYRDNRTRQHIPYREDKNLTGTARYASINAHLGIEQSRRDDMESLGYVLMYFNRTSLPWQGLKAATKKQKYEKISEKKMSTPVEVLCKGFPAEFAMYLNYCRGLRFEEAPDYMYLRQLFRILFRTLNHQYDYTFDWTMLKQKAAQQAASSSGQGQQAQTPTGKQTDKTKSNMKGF
Chain of Dual specificity mitogen-activated protein kinase kinase 1 (Homo sapiens), Q02750 [S218D,S222D] (Q02750 whole entry S218D/S222D): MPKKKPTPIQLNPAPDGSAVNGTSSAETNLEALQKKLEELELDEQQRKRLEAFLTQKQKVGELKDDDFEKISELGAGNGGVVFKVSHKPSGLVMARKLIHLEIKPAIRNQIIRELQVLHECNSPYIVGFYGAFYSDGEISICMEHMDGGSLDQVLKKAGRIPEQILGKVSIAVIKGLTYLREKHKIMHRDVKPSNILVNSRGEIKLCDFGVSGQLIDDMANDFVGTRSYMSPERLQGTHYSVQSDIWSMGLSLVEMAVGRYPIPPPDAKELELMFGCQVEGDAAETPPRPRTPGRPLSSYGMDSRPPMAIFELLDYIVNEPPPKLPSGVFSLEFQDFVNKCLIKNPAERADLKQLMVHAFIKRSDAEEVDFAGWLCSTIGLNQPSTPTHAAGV

In the case of `COc1cc(Nc2nc(C)cc(-c3cnn4nc(OC)ccc34)n2)cc(C(F)(F)F)c1`, the figures for the % of control in assay [1] and in assay [2] were 77% and 87%, respectively. Turning to `CN(C)CCOc1ccc(-c2nc(-c3ccncc3)c(-c3ccc4c(c3)CC/C4=N\O)[nH]2)cc1`, the % of control in [3] worked out at 93%. Regarding `Cc1cc(F)c(C(=O)Nc2cccc(-c3nncn3C(C)C)n2)cc1-n1cnc(C2CC2)c1`, the % of control in [4] came to 91%. As to `Cn1cc(-n2cnc3c(NCc4nc5cc(Cl)c(Cl)cc5[nH]4)nc(N4CCOCC4)nc32)cn1`, the % of inhibition in assay [5] was -15.4%; in assay [6], -20.2%; in assay [7], -42.4%; in [8] it was -166%.

Turning to `COc1cc(N(C)c2ccnc3ccc(C(F)(F)F)cc23)cc(OC)c1OC`, the % binding in assay [9] came to 97%; in assay [10], 65%. For `CCC(=O)N1CC[C@H](Nc2ncnc3c2CN(c2cnc(OC)c(C(F)(F)F)c2)CC3)C1` [LENIOLISIB], the concentration for half-maximal inhibition (IC50) in assay [11] was over 30 µM.
